Biological target: hDGAT2 (Homo sapiens (Human), UniProt Q96PD7)
Assay: DGAT2 Enzymatic Activity Assay
Assay type: biochemical
Settings: hDGAT2 Sf-9 membrane prep; 25 μM diolein, 10 μM oleoyl-CoA; triolein product by LC/MS/MS; read-out: IC50 values for inhibition of DGAT2
Protocol: Sf-9 insect cells were maintained in Grace's insect cell culture medium with 10% heated-inactivated fetal bovine serum, 1% Pluronic F-68 and 0.14 μg/ml Kanamycine sulfate in Erlenmeyer flasks at 28° C. in a shaker incubator. After infection with untagged hDGAT2 baculovirus at multiplicity of infection (MOI) 0.1 for 48 hours, cells were harvested. Cell pellets were suspended in buffer containing 10 mM Tris-HCl (pH 7.5), 1 mM EDTA (pH 8.0), 250 mM sucrose and Complete Protease Inhibitor Cocktail (Roche Diagnostics Corp., Indianapolis, Ill.), and sonicated on ice. Membrane fractions were isolated by ultracentrifugation (100,000×g pellet), resuspended in the same buffer, and frozen (−80° C.) for later use. The protein concentration was determined with the BCA Protein Assay kit (Pierce Biotechnology Inc., Rockford, Ill.). Expression of protein levels was analyzed by immunoblotting with goat polyclonal DGAT2 antibody C-15 and donkey anti-goat IgG HRP (Santa Cruz Biotechnology, Inc., Santa Cruz, Calif.) followed by detection with ECL reagent (GE Healthcare, Piscataway, N.J.).
LC/MS/MS analyses were performed using Thermal Fisher's LX4-TSQ Vantage system. This system consists of an Agilent binary high-performance liquid chromatography (HPLC) pumps and a TSQ Vantage triple quadrupole MS/MS instrument. For each sample, 2 μL, samples from the top organic layer of in-plate liquid-liquid extraction were injected onto a Thermo Betabasic C4 column (2.1 mm×20 mm, 5 μm particle size). The samples were then eluted using the following conditions; mobile phase: methanol/water with 0.1% ammonium format=92/8 (v/v), flow rate: 1 mL/min, temperature: 25 C. Data was acquired in positive mode using a heated electrospray ionization (HESI) interface. The operational parameters for the TSQ Vantage MS/MS instrument were a spray voltage of 3000 V, capillary temperature of 280° C., vaporizer temperature 400° C., shealth gas 60 arbitrary unit, Aux gas 40 arbitrary units, S-lens 113 and collision gas 0.16 Pascals. […] (SRM) chromatograms of triolein (Q1: 902.9>Q3: 602.3) and internal standard (Q1: 902.9>Q3: 602.3) were collected for 40 sec. The peak area was integrated by Xcalibur Quan software. The ratio between the triolein generated in the reaction and spiked in internal standard were used to generate percentage inhibition and IC50 values. Compound percentage inhibition was calculated by the following formula: Inhibition %=1-[(compound response low control)/(high control low control)]×100%. Potent compounds were titrated and IC50 were calculated by 4 parameter sigmoidal curve fitting formula.
DGAT2 activity was determined by measuring the amount of enzymatic product triolein (1,2,3-Tri(cis-9-octadecenoyl)glycerol) using the membrane prep mentioned above. The assay was carried out in deep well 384 plates in a final volume of 40 μL at room temperature. The assay mixture contained the following: assay buffer (100 mM Tris.Cl, pH 7.0, 20 mM MgCl2, 5% ethanol), 25 μM of diolein, 10 μM of oleoyl-CoA and 10 ng/μL of DGAT2 membrane.

Chain of hDGAT2 (Q96PD7 whole entry): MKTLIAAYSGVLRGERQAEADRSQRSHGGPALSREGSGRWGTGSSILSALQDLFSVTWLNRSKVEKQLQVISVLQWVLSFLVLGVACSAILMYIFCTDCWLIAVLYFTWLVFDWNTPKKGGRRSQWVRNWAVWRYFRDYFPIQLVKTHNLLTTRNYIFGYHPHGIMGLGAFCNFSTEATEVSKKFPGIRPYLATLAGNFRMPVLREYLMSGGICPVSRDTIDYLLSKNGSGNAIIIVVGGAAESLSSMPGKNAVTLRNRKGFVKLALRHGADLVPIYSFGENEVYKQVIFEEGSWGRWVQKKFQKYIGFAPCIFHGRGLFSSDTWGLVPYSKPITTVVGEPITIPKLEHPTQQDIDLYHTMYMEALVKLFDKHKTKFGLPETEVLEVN

| IC50 [nM] | Structure (SMILES) |
| --- | --- |
| 2100 | COc1cccc(-c2ccc(CNC(=O)[C@@H]3C[C@H]3c3ccccc3)c3c2CCN(C(=O)Nc2ccncc2)C3)c1 (relative stereo) [Example 18, 5-(3-methoxyphenyl)-8-(((trans)-2-phenylcyclopropanecarboxamido)methyl)-N-(pyridin-4-yl)-3,4-dihydroisoquinoline-2(1H)-carboxamide] |
| 6090 | Cc1cc(C)n(-c2cccc(-c3ccc(CNC(=O)[C@@H]4C[C@H]4c4ccccc4)c4c3CCN(C(=O)NC(C)(C)C)C4)c2)n1 (relative stereo) [Example 31, N-(tert-butyl)-5-(3-(3,5-dimethyl-1H-pyrazol-1-yl)phenyl)-8-(((trans)-2-phenylcyclopropanecarboxamido)methyl)-3,4-dihydroisoquinoline-2(1H)-carboxamide] |
| 232 | CCC(C)CNC(=O)N1CCc2c(-c3cccc(OC)c3)ccc(CNC(=O)[C@@H]3C[C@H]3c3ccccc3)c2C1 (relative stereo) [Example 75, 5-(3-methoxyphenyl)-N-(2-methylbutyl)-8-(((trans)-2-phenylcyclopropanecarboxamido)methyl)-3,4-dihydroisoquinoline-2(1H)-carboxamide] |
| 1240 | Cc1noc(C2CC2C(=O)NCc2ccc(-c3cccc(OC(F)(F)F)c3)c3c2CN(CC(N)=O)CC3)n1 (stereo not drawn) [Example 83, N-((2-(2-amino-2-oxoethyl)-5-(3-(trifluoromethoxy)phenyl)-1,2,3,4-tetrahydroisoquinolin-8-yl)methyl)-2-(3-methyl-1,2,4-oxadiazol-5-yl)cyclopropanecarboxamide] |
| 7480 | CC(C)(C)NC(=O)N1CCc2c(-c3cccc4c3CNC4=O)ccc(CNC(=O)[C@@H]3C[C@H]3c3ccccc3)c2C1 (relative stereo) [Example 44, N-(tert-butyl)-5-(1-oxoisoindolin-4-yl)-8-(((trans)-2-phenylcyclopropanecarboxamido)methyl)-3,4-dihydroisoquinoline-2(1H)-carboxamide] |
| 247 | COC(=O)c1cccc(-c2ccc(CNC(=O)C3CC3c3ccccc3)c3c2CCN(Cc2ccccn2)C3)c1 (stereo not drawn) [Example 94, methyl 3-(8-((2-phenylcyclopropanecarboxamido)methyl)-2-(pyridin-2-ylmethyl)-1,2,3,4-tetrahydroisoquinolin-5-yl)benzoate] |
| 10 | COC(=O)c1cccc(-c2ccc(CNC(=O)[C@@H]3C[C@H]3c3ccccc3)c3c2CCN(C(=O)NC2(C)CCCC2)C3)c1 (relative stereo) [Example 55, methyl 3-(2-((1-methylcyclopentyl)carbamoyl)-8-(((trans)-2 phenylcyclopropanecarboxamido)methyl)-1,2,3,4-tetrahydroisoquinolin-5-yl) benzoate] |
| 98 | Cc1noc(C2CC2C(=O)NCc2ccc(-c3cccc(-n4cccn4)c3)c3c2CN(C(=O)N[C@@]2(C)CCS(=O)(=O)C2)CC3)n1 (stereo partly drawn) [Example 79, 5-(3-(1H-pyrazol-1-yl)phenyl)-N-((S)-3-methyl-1,1-dioxidotetrahydrothiophen-3-yl)-8-((2-(3-methyl-1,2,4-oxadiazol-5-yl)cyclopropanecarboxamido)methyl)-3,4-dihydroisoquinoline-2(1H)-carboxamide] |
| 227 | CCOC(=O)CCCNC(=O)N1CCc2c(-c3cccc(OC)c3)ccc(CNC(=O)[C@@H]3C[C@H]3c3ccccc3)c2C1 (relative stereo) [Example 59, ethyl 4-(5-(3-methoxyphenyl)-8-(((trans)-2-phenylcyclopropanecarboxamido)methyl)-1,2,3,4-tetrahydroisoquinoline-2-carboxamido)butanoate] |
| 3130 | CC(C)(C)NC(=O)N1CCc2c(-c3ccn4ncnc4c3)ccc(CNC(=O)[C@@H]3C[C@H]3c3ccccc3)c2C1 (relative stereo) [Example 43, 5-([1,2,4]triazolo[1,5-a]pyridin-7-yl)-N-(tert-butyl)-8-(((trans)-2-phenylcyclopropanecarboxamido)methyl)-3,4-dihydroisoquinoline-2(1H)-carboxamide] |
| 1530 | COC(=O)c1cccc(-c2ccc(CNC(=O)C3CC3c3ccccc3)c3c2CCN(C(=O)c2cccc(F)c2)C3)c1 (stereo not drawn) [Example 140, methyl 3-(2-(3-fluorobenzoyl)-8-((2-phenylcyclopropanecarboxamido)methyl)-1,2,3,4-tetrahydroisoquinolin-5-yl)benzoate] |
| 2170 | CCOCC(=O)N1CCc2c(-c3cccc(C(=O)OC)c3)ccc(CNC(=O)C3CC3c3ccccc3)c2C1 (stereo not drawn) [Example 136, methyl 3-(2-(2-ethoxyacetyl)-8-((2-phenylcyclopropanecarboxamido)methyl)-1,2,3,4-tetrahydroisoquinolin-5-yl)benzoate] |
| 112 | Cc1noc([C@@H]2C[C@H]2C(=O)NCc2ccc(-c3cccc(OC(F)(F)F)c3)c3c2CN(C(=O)Nc2ccon2)CC3)n1 (relative stereo) [Example 2, N-(isoxazol-3-yl)-8-(((trans)-2-(3-methyl-1,2,4-oxadiazol-5-yl)cyclopropanecarboxamido)methyl)-5-(3-(trifluoromethoxy)phenyl)-3,4-dihydroisoquinoline-2(1H)-carboxamide] |
| 992 | CC(C)(C)NC(=O)N1CCc2c(-c3cncc(CO)c3)ccc(CNC(=O)C3C[C@H]3c3ccccc3)c2C1 (stereo partly drawn) [Example 28, N-(tert-butyl)-5-(5-(hydroxymethyl)pyridin-3-yl)-8-(((trans)-2-phenylcyclopropanrcarboxamido)methyl)-3,4-dihydroisoquinoline-2(1H)-carboxamide] |
| 3.6 | Cc1noc([C@@H]2C[C@H]2C(=O)NCc2ccc(-c3cccc(OC(F)(F)F)c3)c3c2CN(C(=O)NC(C)(C)C)CC3)n1 (relative stereo) [Example 12, N-(tert-butyl)-8-(((trans)-2-(3-methyl-1,2,4-oxadiazol-5-yl)cyclopropanecarboxamido)methyl)-5-(3-(trifluoromethoxy)phenyl)-3,4-dihydroisoquinoline-2(1H)-carboxamide] |
| 2650 | CC(C)(C)NC(=O)N1CCc2c(-c3ccc4c(c3)CNC4=O)ccc(CNC(=O)[C@@H]3C[C@H]3c3ccccc3)c2C1 (relative stereo) [Example 45, N-(tert-butyl)-5-(1-oxoisoindolin-5-yl)-8-(((trans)-2-phenylcyclopropanecarboxamido)methyl)-3,4-dihydroisoquinoline-2(1H)-carboxamide] |
| 302 | COc1cccc(-c2ccc(CNC(=O)[C@@H]3C[C@H]3c3ccccc3)c3c2CCN(C(=O)Nc2ccon2)C3)c1 (relative stereo) [Example 23, N-(isoxazol-3-yl)-5-(3-methoxyphenyl)-8-(((trans)-2-phenylcyclopropanecarboxamido)methyl)-3,4-dihydroisoquinoline-2(1H)-carboxamide] |
| 1580 | Cc1noc([C@@H]2C[C@H]2C(=O)NCc2ccc(-c3cccc(C(F)(F)F)c3)c3c2CN(C(=O)C(C)(C)O)CC3)n1 (stereo in doubt) [Example 120, (trans)-N-((2-(2-hydroxy-2-methylpropanoyl)-5-(3-(trifluoromethyl)phenyl)-1,2,3,4-tetrahydroisoquinolin-8-yl)methyl)-2-(3-methyl-1,2,4-oxadiazol-5-yl)cyclopropanecarboxamide] |
| 456 | CCn1ccnc1CN1CCc2c(-c3cccc(OC(F)(F)F)c3)ccc(CNC(=O)C3C[C@H]3c3nc(C)no3)c2C1 (stereo partly drawn) [Example 102] |
| 3900 | COC(=O)c1cccc(-c2ccc(CNC(=O)C3CC3c3ccccc3)c3c2CCN(Cc2cccnc2)C3)c1 (stereo not drawn) [Example 99, methyl 3-(8-((2-phenylcyclopropanecarboxamido)methyl)-2-(pyridin-3-ylmethyl)-1,2,3,4-tetrahydroisoquinolin-5-yl)benzoate] |
| 87 | COc1cccc(-c2ccc(CNC(=O)C3CC3c3ccccc3)c3c2CCN(C(=O)NC2CC(F)(F)C2)C3)c1 (stereo not drawn) [Example 57, N-(3,3-difluorocyclobutyl)-5-(3-methoxyphenyl)-8-((2-phenylcyclopropanecarboxamido)methyl)-3,4-dihydroisoquinoline-2(1H)-carboxamide] |
